Values of other authors, collected in US6548045B2, “Nitroimidazole substituted porphyrin complex” (Photochemical Co., Ltd., priority 1999, dated 2003).

Tests used:
[1] = in vivo
[2] = tested on: anoxic tissues in tumor; details: animal experiment implanting tumor
[3] = tested on: anoxic tissues in tumor; details: in vivo

Compound: COCC(O)Cn1ccnc1[N+](=O)[O-] (stereo not drawn) [Misonidazole]
- neurotoxicity [1]: high neurotoxin
- efficacy compared with absence of the compound [2]: twice times more efficacies
- efficacy in the human being [3]: no efficacy is observed
